PubChem BioAssay (NCI)
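Assay format: 96-well plates, 48-hour exposure. Abbreviation: GI50, concentration required for 50% inhibition of growth. TGI marks complete inhibition of growth.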

Columns and labels:
Assay in all cases: DTP human tumour cell line panel, 48 h
HCC-2998 colon = test system: HCC-2998 colon
HT29 colon = test system: HT29 colon
MCF7 breast = test system: MCF7 breast
MOLT-4 leukemia = test system: MOLT-4 leukemia
OVCAR-4 ovarian = test system: OVCAR-4 ovarian
OVCAR-5 ovarian = test system: OVCAR-5 ovarian
SK-MEL-28 melanoma = test system: SK-MEL-28 melanoma
SK-MEL-5 melanoma = test system: SK-MEL-5 melanoma
HL-60(TB) leukemia = test system: HL-60(TB) leukemia
MDA-MB-231 breast = test system: MDA-MB-231 breast

| Structure (SMILES) | TGI (HCC-2998 colon) | TGI (HT29 colon) | TGI (MCF7 breast) | TGI (MOLT-4 leukemia) | TGI (OVCAR-4 ovarian) | TGI (OVCAR-5 ovarian) | TGI (SK-MEL-28 melanoma) | TGI (SK-MEL-5 melanoma) | TGI (HL-60(TB) leukemia) | TGI (MDA-MB-231 breast) | GI50 (HCC-2998 colon) | GI50 (HL-60(TB) leukemia) | GI50 (HT29 colon) | GI50 (MCF7 breast) | GI50 (MDA-MB-231 breast) | GI50 (MOLT-4 leukemia) | GI50 (OVCAR-4 ovarian) | GI50 (OVCAR-5 ovarian) | GI50 (SK-MEL-28 melanoma) | GI50 (SK-MEL-5 melanoma) |
| --- | --- | --- | --- | --- | --- | --- | --- | --- | --- | --- | --- | --- | --- | --- | --- | --- | --- | --- | --- | --- |
| Nc1nn2c(=O)c3ccccc3nc2s1 | > 100 µM | > 100 µM | > 100 µM | 53.1 µM | > 100 µM | > 100 µM | > 100 µM | > 100 µM | – | – | – | – | – | – | – | – | – | – | – | – |
| Cc1cnc2c(c1)C(=O)C1=C(C2=O)C2OC(=O)CC2OC1(C)C (stereo unspecified) | 0.822 µM | 1.25 µM | 0.363 µM | – | 0.359 µM | 0.951 µM | 2.04 µM | 0.997 µM | 0.0142 µM | 0.35 µM | – | – | – | – | – | – | – | – | – | – |
| CCOC(=O)/C=C(\C(=O)OCC)n1ccc(=O)n(Cc2cn(COCCOC(C)=O)nn2)c1=O | 30.2 µM | 30.8 µM | 35.1 µM | 39.3 µM | 38.3 µM | 55.2 µM | 41 µM | 47.1 µM | 41.3 µM | 41.1 µM | – | – | – | – | – | – | – | – | – | – |
| COC(=O)/C(C#N)=C(/NCCN)Nc1ccccc1 | > 100 µM | > 100 µM | > 100 µM | > 100 µM | > 100 µM | > 100 µM | > 100 µM | > 100 µM | > 100 µM | > 100 µM | – | – | – | – | – | – | – | – | – | – |
| COC(=O)C1=Nc2c(C)nn(-c3ccccc3)c2N=C(c2ccccc2)C1 | > 10 µM | > 10 µM | > 10 µM | > 10 µM | > 10 µM | > 10 µM | > 10 µM | > 10 µM | > 10 µM | > 10 µM | – | – | – | – | – | – | – | – | – | – |
| CCOC(=O)c1nnsc1NN | > 100 µM | > 100 µM | > 100 µM | > 100 µM | > 100 µM | > 100 µM | > 100 µM | > 100 µM | > 100 µM | > 100 µM | – | – | – | – | – | – | – | – | – | – |
| O=C(c1ccncc1)C1C(=O)c2ccccc2C1C1(O)c2ccccc2CC1C(O)c1ccncc1 (stereo unspecified) | > 100 µM | > 100 µM | > 100 µM | 69.7 µM | > 100 µM | > 100 µM | > 100 µM | > 100 µM | – | > 100 µM | – | – | – | – | – | – | – | – | – | – |
| Cc1c2c(OCC3CCCCO3)nn(C)c(=O)c2c(C)n1-c1ccccc1 (stereo unspecified) | 29.4 µM | 91.4 µM | 30.3 µM | > 100 µM | 32.8 µM | 35.9 µM | – | 29.1 µM | – | 32.2 µM | – | – | – | – | – | – | – | – | – | – |
| CCCCCCCCCc1nn2c(Cc3ccccc3)nnc2s1 | – | – | 73.6 µM | 59.3 µM | 54.6 µM | 29.6 µM | 33.8 µM | 30.1 µM | – | 54.5 µM | – | – | – | – | – | – | – | – | – | – |
| O=c1cc(-c2ccccc2)oc2c(-c3cc(Cl)cc4c(=O)cc(-c5ccccc5)oc34)cc(Cl)cc12 | > 100 µM | > 100 µM | > 100 µM | 52.1 µM | > 100 µM | > 100 µM | > 100 µM | 32.8 µM | > 100 µM | > 100 µM | – | – | – | – | – | – | – | – | – | – |
| COc1cc(/C=C/C=C2\CC/C(=C\C=C\c3ccc(O)c(OC)c3)C2=O)ccc1O | > 100 µM | > 100 µM | > 100 µM | 22.2 µM | > 100 µM | > 100 µM | > 100 µM | > 100 µM | > 63.8 µM | > 100 µM | – | – | – | – | – | – | – | – | – | – |
| COc1ccc(CN2C3CC2CN(c2ccc(-c4cc(OCC(C)(C)O)cn5ncc(C#N)c45)cn2)C3)cn1 | > 100 µM | > 100 µM | > 100 µM | > 100 µM | > 100 µM | > 100 µM | > 100 µM | > 100 µM | > 100 µM | > 100 µM | 93.7 µM | > 100 µM | 8.09 µM | 6.06 µM | 8.04 µM | 52.9 µM | 3.63 µM | > 100 µM | > 100 µM | > 100 µM |
| CC(=O)c1ccc2c(c1)CC1(C2)Cc2ccccc2C1=O (stereo unspecified) | > 100 µM | 43.8 µM | > 100 µM | > 100 µM | > 100 µM | > 100 µM | > 100 µM | 65.3 µM | 70 µM | > 100 µM | – | – | – | – | – | – | – | – | – | – |
| COc1cc2c(cc1Cc1c(F)cccc1Cl)nc(-c1c(F)cccc1Cl)n2Cc1c(F)cccc1Cl | 76.7 µM | > 100 µM | > 100 µM | > 100 µM | > 100 µM | > 100 µM | > 100 µM | > 100 µM | > 100 µM | > 100 µM | – | – | – | – | – | – | – | – | – | – |
| CC(C)OC(=O)OCSc1ccccc1N=Cc1cccc([N+](=O)[O-])c1 | > 10 µM | > 10 µM | > 10 µM | > 10 µM | > 10 µM | > 10 µM | > 10 µM | > 10 µM | > 10 µM | > 10 µM | – | – | – | – | – | – | – | – | – | – |
| COc1ccc(NC(=S)NC(=O)c2ccc3c(c2)Sc2ccccc2O3)c([N+](=O)[O-])c1 | – | > 100 µM | > 100 µM | > 100 µM | 91 µM | > 100 µM | > 100 µM | > 100 µM | 82.1 µM | 62.8 µM | – | – | – | – | – | – | – | – | – | – |
| CN(C)CCC(=O)/C=C\c1ccccc1 | – | 39.2 µM | – | 33.1 µM | 33.3 µM | 35.7 µM | 30.9 µM | 31.8 µM | 36.8 µM | – | – | – | – | – | – | – | – | – | – | – |
| C[C@H]1SC(c2ccc(Cl)cc2Cl)N(NC(=O)c2ccncc2)C1=O (stereo partly specified) | – | > 100 µM | > 100 µM | – | – | > 100 µM | > 100 µM | 37 µM | > 100 µM | > 100 µM | – | – | – | – | – | – | – | – | – | – |
| COc1nc(C#CC(C)(C)C)nc(OC)n1 | – | > 100 µM | 89.5 µM | > 100 µM | 35.5 µM | 42.5 µM | > 100 µM | 39 µM | > 100 µM | 59.8 µM | – | – | – | – | – | – | – | – | – | – |
| OCc1ccc2c(c1)CC1(Cc3ccc(/C=N/O)cc3C1)C2 (stereo unspecified) | 11.5 µM | 11.4 µM | – | > 40.4 µM | > 61.7 µM | > 87.7 µM | > 100 µM | 8.25 µM | – | > 100 µM | – | – | – | – | – | – | – | – | – | – |
| N#Cc1nc(NC(=O)c2ccccc2C(=O)O)c(C#N)[nH]1 | – | > 100 µM | > 100 µM | > 100 µM | – | > 100 µM | > 100 µM | > 100 µM | > 100 µM | > 100 µM | – | – | – | – | – | – | – | – | – | – |
| COc1ccc(C2c3cc4c(cc3OC(N3CCOCC3)C2C)OCO4)c(OC)c1OC (stereo unspecified) | 25 µM | 52.2 µM | 80.2 µM | 34 µM | – | 74.3 µM | 82 µM | 23.1 µM | – | – | – | – | – | – | – | – | – | – | – | – |
